Measured values: patent publication US11931347B2, “Method of screening for agents for differentiating stem cells” (MINERVA BIOTECHNOLOGIES CORPORATION, priority 2015, dated 2024)

Assays:
T47D breast cancer cells [1] = assay: cancer cell proliferation assay (Calcein live cell stain); format: cell-based, human; conditions: for inhibition of cancer cell proliferation relative to parent compounds: T47D, Calcein assay after 120 hours, 40-2.5 uM
Protocol: These analogs of MN1194 and 1186 were also tested in a cell growth assay (FIGS. 107A1-107H6 and FIG. 108A1-108H6, respectively). In this experiment, both parent compound and analogs thereof were added to normal cell culture media to final concentrations of 40 uM, 20 uM, 10 uM, 5 uM or 2.5 uM. For comparison, previously known cancer cell migration inhibitors SU11274 and MN1204 were included in the same experiment. […] Relative cell proliferation is quantified on a standard plate reader that reads the fluorescence of the Calcein that is taken up by live cells.
Small molecule inhibition of cancer cell proliferation studies were also performed on several cancer sub-types. […] The small molecules of the invention had the most robust effect on T47D breast cancer cells, which are highly positive for MUC1* growth factor receptor, and its activating ligands NME7AB and NME7-X1.
(§1) For the cancer cell proliferation experiment cancer cells were plated at constant densities (6000 cells/well) into a 96-well White-walled/Clear-bottom Tissue Culture Treated plate (Corning Incorporated, Big Flats, N.Y.). Small molecule analogs are added at T=24 hours in media with 2% FBS. Following the addition of the small molecules, the cells remain untouched for 120 hours with visual confirmations/inspections at 24, 48, 72 and 96 hours post plating. At the 120 hour mark a calcein fluorescence assay (Thermo Fisher Scientific, Waltham, Mass.) is performed on the plate. Calcein fluorescence (final concentration 0.5 uM) is used to assess cell viability. Cancer cell fluorescence is measured in a TECAN SAFIRE^2 spectrophotometer plate reader. The plate is then imaged using an Olympus IX71 fluorescence imaging microscope and montage of the resulting images are assembled using ImageJ.

[2] = tested on: MDA-MB-453 breast cancer cells; assay: cancer cell proliferation assay (Calcein); format: cell-based; conditions: 96 hours (FIG. 110)
Protocol: as §1, with “Small molecule inhibition of cancer cell proliferation studies were also performed on several cancer sub-types. […] The small molecules of the invention had the most robust effect on T47D breast cancer cells, which are highly positive for MUC1* growth factor receptor, and its activating ligands NME7AB and NME7-X1. […] For” for “For”

[3] = tested on: DU145 MUC1* positive prostate cancer cells; assay: cancer cell proliferation assay (Calcein); format: cell-based; conditions: 96 hours (FIG. 109)
Protocol: as §1, with “Small molecule inhibition of cancer cell proliferation studies were also performed on several cancer sub-types. […] The small molecules of the invention had the most robust effect on T47D breast cancer cells, which are highly positive for MUC1* growth factor receptor, and its activating ligands NME7AB and NME7-X1. […] For” for “For”

[4] = tested on: PC-3 MUC1* negative, NME7AB positive prostate cancer cells; assay: cancer cell proliferation assay (Calcein); format: cell-based; conditions: 96 hours (FIG. 111)
Protocol: as §1, with “Small molecule inhibition of cancer cell proliferation studies were also performed on several cancer sub-types. […] The small molecules of the invention had the most robust effect on T47D breast cancer cells, which are highly positive for MUC1* growth factor receptor, and its activating ligands NME7AB and NME7-X1. […] For” for “For”

T47D breast cancer cells [5] = assay: cancer cell migration, invasion assay (Platypus/Oris system); format: cell-based, human; conditions: T47D; for inhibition of cancer cell migration: 120 hours; for IC50: Homo sapiens, curves calculated from 72 hour post dosing time point, read-out: IC50 of inhibition of cancer cell migration
Protocol: We then tested an expanded panel of agents, including agents known to inhibit cancer growth or migration (FIG. 17) (Horm et al., 2012; Meng & Yue, 2014; Zhen et al., 2014), which is characteristic of aggressive or metastatic cancers. We also synthesized a series of novel small molecules, tested them in the stem cell drug screening assay, and then synthesized analogs of the best hits. These small molecules are pictured in FIGS. 18-27. Both the known compounds and the novel compounds were tested in the stem cell drug screening assay. The effects of the small molecules on naïve versus primed state stem cells are shown in the photographs of FIGS. 29-72. The small molecules pictured in FIGS. 17-27 and the biologicals were also tested in a cancer cell migration assay. A structure activity relationship table is seen in FIG. 28. Potent cancer cell migration is characteristic of cancer cell invasion of other tissues and of metastasis. Typical migration assays involve coating a cell culture plate with fibronectin, collagen or the like, plating cancer cells and making a scar across through the cells and measuring the time it takes for the cancer cells to invade the void space. An alternative approach that gives more reliable data is the Platypus System which is a special multi-well cell culture plate with a juxtaposed set of plugs that block off a circle in the center of each well. Cancer cells are plated while the plugs are in place, then they are removed after the cells attach to the plate surface. […] A bar graph summarizing the results of the known anti-migration compounds compared to the anti-MUC1* Fab E6 and the first few small molecules synthesized is shown in FIG. 73. The effect of two novel small molecules MN1186 and MN1194, compared to the known anti-migration molecule SU11274, is shown in FIG. 75A-75U. FIG. 75V is a graph showing the measured inhibition of cancer cell migration at time 0, 24 hours or 48 hours for a number of compounds. […] FIG. 75X is a graph showing how IC50's of the small molecules of the invention were measured and calculated.
Percent inhibition of cancer cell migration was performed in a wound healing assay. The Percent area that the invading cancer cells occupied, in the presence of a drug candidate compared to the controls, was quantified by Image J cell software which enables cell counting from photographs. IC50's were calculated by performing migration experiments at several compound concentrations and then applying Hill's equation. Inhibition of cancer cell proliferation was quantified by automated cell counting in the presence or absence of a drug candidate. Here, the potency of the drug candidate was simply scored 4 for the highest degree of inhibition and 0 for the lowest. […] The effect of each drug candidate was scored 0-4, with 4 being the highest in inhibiting cell proliferation (FIG. 28).
For the cancer cell migration experiment cancer cells were plated at varying densities into an Oris Cell Migration Assay Collagen-1 coated 96-well plate (Platypus Technologies LLC, Madison, Wis.). The Collagen-1 coated 96-well plate incorporates a specific vacuum plug which attaches to the bottom of each well, creating an area in which the cells cannot grow into. Once the cells have been plated at high densities into each well, they are allotted an 18-24 hour time period to attach to the bottom of the wells. Post-24 hour plugs are removed from the plate and then small molecule analogs are added to the wells. Images are taken of each well and represent time 0 (T=0) for each well. Images are taken of the wells at the 24, 48, 72, 96 and 120 hour time points. Data analysis is conducted using the images taken at these specific time point. Images are imported into ImageJ (Rasband, W. S., ImageJ, U. S. National Institutes of Health, Bethesda, Md., USA, http://imagej.nih.gov/ij/, 1997-2016.) and the area remaining free of cells is calculated. […]

[6] = tested on: human primed state stem cells; assay: stem cell drug screening assay on primed state stem cells; format: cell-based; parameters: key to effect on primed state stem cells, score: “−” indicates that at 6 uM the drug candidate did not have an obvious effect on the pluripotency or proliferation of the stem cells; A “+” indicates a mild effect; a score of −, or +, ++, +++, or ++++ is given; a score of −, or +, ++, +++, or ++++ is given; “++++” indicates a profound effect on pluripotency or proliferation
Protocol: (§2) The stem cell screening assay, was performed in both the presence and absence of the stem cell growth factors: NME7AB for growing naïve stem cells or FGF for growing primed stem cells. If the cognate growth factor was present, then the biological or small molecule would have to compete away the growth factor to get an effect. Therefore, we expected to see more of an effect when the growth factor, FGF for primed stem cells or NME7AB or NME1 dimers for naïve stem cells, was absent. The effect of the compounds on stem cells was visually determined and compounds were ranked 0-4, with 4 being the greatest effect and 0 being no observable effect. The major effect that was observed was a change from pluripotent stem cell morphology, which is a cobblestone pattern of small round cells with a large nucleus to cytoplasm ratio, to that of differentiating stem cells, which are elongated, large and flattened cells with a smaller nucleus to cytoplasm ratio. […] The compounds were added to a final concentration of 6 uM to either naïve state stem cells or primed state stem cells. In this particular case, the naïve state stem cells were maintained in a naïve state by culturing in a media containing NME7AB or NME1 dimers. However, other methods such as 2i and 5i (Silva et al., 2008, Nichols and Smith, 2009, Theunissen et al., 2014)] can be used to maintain stem cells in a more naïve state. In this case primed state stem cells were cultured in bFGF over a layer of MEFs, although it is known that any bFGF containing media will maintain stem cells in the primed state.
Stem cells whether embryonic or induced pluripotent stem (iPS) cells were cultured in a minimal, serum-free media that contained human recombinant bFGF at a concentration of 8 ng/mL. The stem cells were plated over a layer of inactivated mouse embryonic fibroblasts, aka MEFs, which secrete additional uncharacterized growth factors and cytokines.
(§3) Human naïve state and primed stem cells were cultured in parallel for at least 5 passages to guarantee normal differentiation-free growth. The stem cells were plated in 12-well cell culture plates with 50,000 cells per well. Cells were cultured in their respective media, either bFGF media or NME7AB media for 24 hours. Media was then removed and replaced with media devoid of bFGF or NME7AB, when indicated. Agents being tested for their ability to induce differentiation of naïve stem cells were added to the media at the concentrations indicated. After 72 hours, photographs were taken see FIGS. 1-10.
(§4) Human naïve state and primed stem cells were cultured in parallel for at least 5 passages to guarantee normal differentiation-free growth. The stem cells were plated in 12-well cell culture plates with 50,000 cells per well. Cells were cultured in their respective media, either bFGF media or NME7AB media for 24 hours. Media was then removed and replaced with media devoid of bFGF or NME7AB. […] Media was changed after 48 hours and replaced with fresh media containing the BRD4 inhibitors. After 4 days the experiment was stopped. Photographs were taken and cell pellets collected for further analysis, see FIGS. 11-16.

[7] = tested on: human naïve state stem cells; assay: stem cell drug screening assay on naïve state stem cells; format: cell-based; parameters: key to effect on naïve stem cells, score: “−” indicates that at 6 uM the drug candidate did not have an obvious effect on the pluripotency or proliferation of the stem cells; A “+” indicates a mild effect; a score of −, or +, ++, +++, or ++++ is given; a score of −, or +, ++, +++, or ++++ is given; “++++” indicates a profound effect on pluripotency or proliferation; conditions: 6 uM, 3 days, NME7AB absent
Protocol: as §2
Stem cells whether embryonic or induced pluripotent stem (iPS) cells were cultured in a minimal, serum-free media that contained human recombinant NME7AB at a concentration of 2-32 nM wherein 4-8 nM is preferred and 4 nM is more preferred. To facilitate surface attachment, cell culture plates were coated with an anti-MUC1* monoclonal antibody called MN-C3 or C3 or MN-C8 at a concentration of 2-100 ug/mL coating solution, wherein 3-50 ug/mL is preferred and 6-12.5 ug/mL is more preferred. In these experiments, 12.5 ug/mL of MN-C3 was used. Antibody coated plates were incubated at 4 degrees C. overnight prior to plating stem cells. A Rho kinase I inhibitor was added to enhance surface attachment. In some cases, NME7AB was substituted with human recombinant NME1 dimers which also induce stem cells to revert to a naïve-like state.
as §3, §4

## CC(C)CC1c2[nH]c3ccccc3c2CCN1C(=O)CCc1ccccc1 (stereo not drawn) [MN1133]
T47D breast cancer cells [1]; live cell Calcein stain, 96 hours (FIG. 113)
  inhibition of growth of T47D cells: severely inhibited growth
[2]
  inhibition of growth of MDA-MB-453 cells: inhibited the growth
[3]
  inhibition of growth of DU145 cells: inhibited the growth
[4]
  inhibition of growth of PC-3 cells: inhibited the growth

## CC(C)CC1c2[nH]c3cc(F)ccc3c2CCN1C(=O)CCCCNC(=O)OC(C)(C)C (stereo not drawn) [MN1229]
T47D breast cancer cells [5]
  inhibition of cancer cell migration: improvements over MN1186
T47D breast cancer cells [1]
  inhibition of cancer cell proliferation relative to parent compounds: inhibit cancer cell proliferation better than parent compounds

## Cc1sc2c(c1C)C(c1ccc(Cl)cc1)=N[C@@H](CC(=O)OC(C)(C)C)c1nnc(C)n1-2 [JQ1(−), JQ1]
[6]; treated for 3 days, bFGF absent
  induction of differentiation of primed state stem cells: None of these agents appeared to induce differentiation

## Cc1ccc2[nH]c3c(c2c1)CCN(C(=O)C1CCC(CNC(=O)OC(C)(C)C)CC1)C3CC(C)C (stereo not drawn) [MN1265]
T47D breast cancer cells [5]
  IC50: 770 nM

## CC(C)CC1c2[nH]c3ccc(F)cc3c2CCN1C(=O)C1CCC(CNC(=O)OC(C)(C)C)CC1 (stereo not drawn) [MN1266]
T47D breast cancer cells [5]
  IC50: 1290 nM

## CC(C)CC1c2[nH]c3ccccc3c2CCN1C(=O)CNC(=O)OC(C)(C)C (stereo not drawn) [MN1186]
T47D breast cancer cells [5]
  inhibition of cancer cell migration: most potent inhibitors of cancer cell migration
[7]
  effect on naïve stem cells, score: ++++
[6]; 6 uM, 3 days, FGF absent
  effect on primed state stem cells, score: ++

## CC(C)CC1c2[nH]c3ccccc3c2CCN1C(=O)CCCCNC(=O)OC(C)(C)C (stereo not drawn) [MN1194]
T47D breast cancer cells [5]
  inhibition of cancer cell migration: most potent inhibitors of cancer cell migration
[7]
  effect on naïve stem cells, score: ++++
[6]; 6 uM, 3 days
  effect on primed stem cell pluripotency, growth or differentiation (visually determined): barely affected

## CC(C)CC1c2[nH]c3cc(Cl)ccc3c2CCN1C(=O)CNC(=O)OC(C)(C)C (stereo not drawn) [MN1228]
T47D breast cancer cells [5]
  inhibition of cancer cell migration: improvements over MN1186
T47D breast cancer cells [1]
  inhibition of cancer cell proliferation relative to parent compounds: inhibit cancer cell proliferation better than parent compounds

## CC(C)CC1c2[nH]c3ccccc3c2CCN1C(=O)CCCNC(=O)OC(C)(C)C (stereo not drawn) [MN1190]
T47D breast cancer cells [5]
  inhibition of cancer cell migration: improvements over MN1186
T47D breast cancer cells [1]
  inhibition of cancer cell proliferation relative to parent compounds: inhibit cancer cell proliferation better than parent compounds

## CC(C)CC1c2[nH]c3ccccc3c2CCN1C(=O)CCCCCNC(=O)OC(C)(C)C (stereo not drawn) [MN1195]
T47D breast cancer cells [5]
  inhibition of cancer cell migration: improvements over MN1186
T47D breast cancer cells [1]
  inhibition of cancer cell proliferation relative to parent compounds: inhibit cancer cell proliferation better than parent compounds
